According to patent US20220409646A1, “MALTOSYL-ISOMALTO-OLIGOSACCHARIDES REDUCE SYMPTOMS OF GASTROESOPHAGEAL REFLUX DISEASE” (ISOThrive Inc., priority 2021, published 2022):

Test system: subjects with GERD
Settings: human, in vivo
From the text: The study began in March 2020 when a total of 110 subjects were screened for GERD using stringent eligibility criteria by the study coordinator and the principal investigator. […] The subjects acted as their own controls and there was no placebo arm. All subjects had active symptoms as determined by verbal history and daily ReQuest (RQ) validated GERD questionnaire symptom scores above specified thresholds, or GERD symptoms at four or more days per week.
As of May 2021, 44 subjects had completed the following protocol. […] Symptom evaluation for each included: RQ_GI: acid and abdominal (upper/lower) complaints, nausea; RQ_WSO: general well-being, sleep disturbances, and other complaints; and RQ_TOT: the sum of both. The Short Form 36 Health Survey validated questionnaire (see webpage physio-pedia.com/36-Item_Short_Form_Survey_(SF-36)) was used to assess quality of life. The SF-36 form was completed by subjects on day seven of week zero as well as on each day seven per week during the study duration. The subjects had to report any usage of GERD medications such as PPIs, H2 antagonists, and acids throughout the study, as well as any changes in their other medications. The primary endpoint was tolerability, defined as ending on week four with a request symptom score and a SF-36 score that was at or better than the baseline week zero score (determined as >0% reduction in weekly mean RQ symptom scores as % from baseline to week 4). Statistical analysis was done using the Wilcoxon signed-rank test with multiple comparison correction. In addition, a comparison was made of the number of days without acid complaints per week, or the heartburn-free days per week, for week four compared to the week zero baseline.
It was taken 1 g daily at bedtime.
All subjects had active GERD symptoms as determined by the ReQuest validated GERD specific questionnaire and/or GERD symptoms at least 4 days per week. […] All subjects were screened per the eligibility criteria delineated in this protocol by the study coordinator. The study was done remotely. There was communication but no in person contact or visits with the study coordinator.
Two phases were designed into this study. Phase 1 was the Screening Phase (SP). Phase 2 was the Tolerability Phase (TP). Subjects were instructed to take a daily GERD symptom questionnaire, the ReQuest Short Version, daily throughout the study. At five timepoints, specific scores were established for comparison and statistical analysis.

nausea, number of patients: 2 patients | nausea, share of patients: 5% | subjects who either did not improve or got worse: Five | worsening of RQ_GI (gastrointestinal symptoms), number of subjects: 5 of 44 | worsening of RQ_TOT (total scores), number of subjects: 4 of 44 | worsening of RQ_TOT (total scores), share of subjects: 9%
Substance: maltosyl-isomaltooligosaccharides [ISOT-101]
ISOT-101-related adverse events: no ISOT-101-related adverse events | tolerability (in words): well tolerated
